Assay results published in patent US20200362314A1, “METHODS TO PRODUCE ADULT-LIKE CARDIOMYOCYTES DERIVED FROM INDUCED PLURIPOTENT STEM CELLS FOR DRUG DISCOVERY” (THE REGENTS OF THE UNIVERSITY OF COLORADO, A BODY CORPORATE, priority 2019, published 2020).
“Also recorded” adds a separate entry of the source. Marks after values point to notes of the source that are not given here.

How the values were obtained:
hiPSC-CMs [1] = test: Hypertrophic response (cell area) of hiPSC-CMs; format: cell-based, human; settings: for increase in cell area: vs vehicle
Procedure: Panels A-B show an image and graph, respectively, depicting hiPSC-CMs cultured under indication conditions and treated with vehicle, 10 μM phenylephrine (PE) or 10 μM PE and 1 μM JQ-1 (a BET Bromodomain inhibitor) for 48 hours, then fixed and stained for α-actinin (green) and Hoescht 3342 (blue). Representative images are shown in panel A. Cell area of hiPSC-CMs were quantified in panel B. Cell areas measured on 616-789 cardiomyocytes pooled from four independent inductions. Panel C is a graph depicting qPCR for B-type natriuretic peptide, normalized to 18S rRNA and shown as fold change relative to GLUC, from cDNA prepared from four independent inductions. Panels D-F depict data showing characterization of cardiac hypertrophy in Danon hiPSC-CMs under various culture conditions, and their comparison to the hypertrophy observed in human patients. In Panel D, hypertrophy (as assessed by left ventricular posterior wall thickness, LVPW) in the hearts of human patients is shown. […] Cell areas measured on 356-1056 cardiomyocytes pooled from two independent inductions. *, **, **** p<0.05, 0.01, 0.0001, Kruskal-Wallis test followed by Dunn's multiple comparison test (B,D) or one way ANOVA followed by Tukey's multiple comparison test on log2 transformed data (C).
Cell imaging studies: Cells on small unpatterned or patterned surfaces in 24 well plates were used for immunofluorescent staining. Briefly, cells were washed with PBS, then fixed either with 4% paraformaldehyde (PFA) in PBS (10 minutes at room temperature) or a 1:1 mixture of methanol and acetone (5minutes at -20° C.). After fixation, cells were washed with PBS, then permeabilized with 0.2% Triton-X 100 in PBS (10 minutes at room temperature). Methanol/acetone fixation was used for images shown in FIG. 1 (staining for α-actinin, MYBPC3, c-TNI, and MLC-2V). PFA fixation was used for all other experiments. All measurements of cell area and hypertrophy were conducted on PFA fixed cells.
For cell area measurements, cells were PFA fixed and stained for α-actinin as described above, then counterstained with HCS CellMask™ Orange (Thermo Fisher Scientific, Waltham, Mass.), diluted 1:2, 500 in PBS, for 30 minutes at room temperature.
All imaging was conducted on an EVOS FL Cell Imaging System (Thermo Fisher Scientific, Waltham, MA). All image analysis including measurements of cell area, circularity, and sarcomere length were conducted using Image J.

[2] = system: adult mouse ventricular cardiomyocytes (AMVCMs); test: Hypertrophic response (cell area) of adult mouse ventricular cardiomyocytes; format: cell-based
Procedure: (§1) Panels A-B show representative images of BNP staining and quantification of BNP and pro-NT-BNP-positive hiPSC-CMs cultured and treated as described in FIGS. 12A-B. Panels C-D show representative brightfield images and cell area of AMVCMs under indicated conditions. AMVCMs were isolated from 8-12 week old adult mice then treated with vehicle, 10 μM phenylephrine (PE) or 10 μM PE and 1 μM JQ-1 for 72 hours, then fixed. **** p<0.0001, Kruskal-Wallis test followed by Dunn's multiple comparison test. Cell areas measured on 664-706 cardiomyocytes pooled from four separate cardiomyocyte isolations.
Cardiomyocyte Isolation: 15 minutes prior to beginning isolation, mice were injected with 300 μL of heparin (10,000 units/mL). Mice were then anesthetized via inhalation of isofluorane, and when becoming unresponsive to toe pinch were killed via cervical dislocation. The chest was then opened, and the heart was removed rapidly and placed in ice-cold perfusion buffer (10 mM creatine monohydrate, 30 mM Taurine, 5.6 mM Dglucose, 4.6 mM NaHCO3, 10 mM BDM, 120 mM NaCl, 15 mM KCl, 0.6 mM Na2HPO4, 0.6 mM KH2PO4, 1.2 mM MgSO4, 10 mM Hepes, filtered at 0.40 μm, pH 7.4). The heart was washed briefly in perfusion buffer, and excess fat/thymus tissue trimmed off. […] Cells were then inspected and counted, and if <60% of myocytes were rod-shaped (viable) the cells were not used for experimentation. […]

[3] = system: myofibrils from MPAT hiPSC-CMs; test: Myofibril mechanics of MPAT hiPSC-CMs; format: cell-based, human
Source text: FIG. 13 is graphs showing results that indicate that phenylephrine treatment induces changes in myofibril relaxation which are similar to those observed in human hypertrophic cardiomyopathy. […] Myofibrils were isolated from 4 donor and 4 HCM hearts, with at least 6 myofibrils isolated per heart. […] 44-45 myofibrils isolated per condition, pooled from 3 independent inductions. Complete tables of myofibril data from these experiments are available in Tables 4 and 5. *, **, **** p<0.05, 0.01, 0.0001, Student's t test on log2-transformed data.
To isolate myofibrils from adult mouse cardiomyocytes and stem cell derived cardiomyocytes, cells were lysed and myofibrils prepared using an adaption from a recently described method. In brief, cells were lysed in relaxing solution with protease inhibitors and 20% (w/vol) sucrose, using a scraper. The lysed cell solution was then transferred into a microfuge tube and incubated on ice for 10 minutes with periodic vortexing. The cell/myofibril solution was then centrifuged at 1,500 g for 5 minutes at 4° C., and the cell/myofibril pellet resuspended in fresh relaxing solution with protease inhibitors. This process was repeated twice to remove any residual sucrose, and the cell/myofibril solution was then homogenized.
Myofibril mechanics were quantified using the fast solution switching technique on a custom-built experimental rig. Myofibril suspensions were plated onto a temperature controlled glass coverslip (15° C.) containing relaxing solution. Single myofibrils and myofibril bundles were then picked up from the surface of this coverslip and mounted between two glass micro-tools. One tool, the stretcher, was linked to a motor which could produce rapid changes in length (Mad City Labs, Madison, Wis.), while the second tool was a calibrated cantilevered force probe (6-8 μm/μN; frequency response 2-5 KHz), which was colored with black ink to increase probe sensitivity. After mounting myofibrils between microtools, they were stretched to 5-10% above slack myofibril length. Average sarcomere lengths and myofibril diameters were measured using ImageJ software. Mounted myofibrils were then activated and relaxed by rapidly changing the position of a double-barreled pipette simultaneously releasing activating solution (pCa 4.5) and relaxing solution (pCa 9.0) from each barrel. By rapidly changing the position of the pipette, the mounted myofibril could be induced to activate and relax. From the activation/relaxation trace produced, the following parameters were acquired: resting tension, the passive tension produced in relaxing conditions, induced by a push on the stretcher; maximum tension (mN/mm2), the greatest level of active tension generated by the myofibril at full calcium activation (pCa 4.5); activation kinetics (kAct), the rate constant of tension development following myofibril activation; reactivation kinetics (kTr), the rate constant of tension redevelopment following myofibril release/stretch to break cross bridges; slow phase relaxation kinetics (kREL,SLOVV), the kinetics of the initial slow/linear phase of myofibril relaxation, slow phase relaxation time (TLIN), the duration of the slow phase of relaxation, from the switching of the pipette to relaxing solution to the beginning of the fast phase of relaxation; fast phase relaxation kinetics (kREL,FAST), the rate constant of the fast (exponential) phase of relaxation.

[4] = system: adult rat cardiac (ARVM) myofibrils; settings: 48 hours of PE treatment; cited from earlier work
myofibrils from AMVCMs = test: Myofibril mechanics of AMVCMs; format: cell-based, mouse
Procedure: Myofibril mechanics data from AMVCMs isolated from 8-12 week old adult mice and treated with vehicle or 10 μM PE for 72 hours before myofibril isolation. Note that rodent myofibrils display profoundly faster kinetics of both activation and relaxation at baseline compared to myofibrils from human hiPSC-CMs and cardiac tissue. *, p<0.05, Student t test. 21-26 myofibrils were isolated from three separate cardiomyocyte isolations. A complete table of myofibril mechanics data on AMVCMs can be seen in Table 6.
Cardiomyocyte Isolation: 15 minutes prior to beginning isolation, mice were injected with 300 μL of heparin (10,000 units/mL). Mice were then anesthetized via inhalation of isofluorane, and when becoming unresponsive to toe pinch were killed via cervical dislocation. The chest was then opened, and the heart was removed rapidly and placed in ice-cold perfusion buffer (10 mM creatine monohydrate, 30 mM Taurine, 5.6 mM Dglucose, 4.6 mM NaHCO3, 10 mM BDM, 120 mM NaCl, 15 mM KCl, 0.6 mM Na2HPO4, 0.6 mM KH2PO4, 1.2 mM MgSO4, 10 mM Hepes, filtered at 0.40 μm, pH 7.4). The heart was washed briefly in perfusion buffer, and excess fat/thymus tissue trimmed off. The aorta was then cannulated using a blunted 20-gauge needle, and was mounted on a Langendorff apparatus (Radnoti, Covina, Calif.) with a heating pump kept at 37° C. for the duration of the isolation (VWR International, Radnor, Pa.). Hearts were mounted on the Langendorff apparatus within 3-7 minutes of removing from the body. The heart was then perfused in retrograde fashion at a rate of 4 mL/minute, driven by a Rainin™ Rabbit peristaltic pump (Mettler Toledo, Columbus, Ohio). To remove blood from the heart's vessels, it was first perfused for 3 min using perfusion buffer. Buffer was then switched to calcium-free digestion buffer (perfusion buffer with 1.3 mg/mL collagenase II) for 3 min and was then switched to digestion buffer supplemented with […] CaCl2. Hearts were perfused with high-calcium digestion buffer for another 6 to 10 minutes, once the heart became extremely soft and compliant. The heart was then removed from the cannulating needle and placed in a 60 mm culture dish with 2.5 mL high-calcium digestion buffer. The atria and right ventricle were then removed, and the left ventricle dissociated using a pipette and forceps. Once the heart was completely dissociated, digestion was halted by the addition of 7.5 mL stopping buffer (perfusion buffer with 10% (vol/vol) FBS and […] CaCl2). The cardiomyocyte suspension was then filtered through 200-μm mesh into a 50-mL conical tube, and the culture dish washed with an additional 10 mL stopping buffer, which was then filtered into the conical tube as well. This cell suspension was then allowed to incubate for 10 minutes at room temperature, allowing a cardiomyocyterich pellet to form. The fibroblast-rich supernatant was discarded, while the pellet with was resuspended in 10 mL of stopping buffer. 100 mM CaCl2 solution was then added to this buffer in a stepwise manner, with 2-min intervals between each addition: calcium concentration was first increased to 112.5 μmol/L, then to 312.5 μmol/L, then 712.5 μmol/L, and finally to 1.4 mmol/L. The cell suspension was then centrifuged at 1,000×g for 3 min at room temperature. Cells were then inspected and counted, and if <60% of myocytes were rod-shaped (viable) the cells were not used for experimentation. Cardiomyocytes were then resuspended in plating medium [perfusion buffer with 2.5% (vol/vol) FBS, 1% (vol/vol) penicillin/streptomycin (P/S), and 1.4 mM CaCl2, and plated on either 6 well plates (for myofibril mechanics) or 24 well plates (for hypertrophy imaging) coated with 9-10 μg/mL Laminin. […]

adult cardiomyocytes = settings: in vitro, typical response; cited from earlier work
neonatal cardiomyocytes = settings: in vitro; cited from earlier work
hiPSC-CMs [5] = test: BNP / pro-NT-BNP immunofluorescent staining of hiPSC-CMs; format: cell-based, human; settings: GLUC hiPSC-CMs; 10 μM PE, 48 hours
Procedure: as §1
For B-type natriuretic peptide (BNP) staining, an adaption of a previously published method was used: cells were PFA fixed, then blocked and permeabilized for 30 minutes with 5% milk/0.1% Triton X-100/PBS (blocking solution) for 30 minutes at room temperature. Cells were then incubated with pro-BNP antibody diluted in blocking solution overnight at 4° C. Cells were then washed four times in 0.05% Triton-X 100/PBS for 5 minutes, and incubated with secondary antibody diluted in blocking solution for hour at room temperature. Cells were then washed twice in 0.05% Triton-X 100/PBS for 5 minutes, counterstained with Hoescht 3342 as described above, and washed twice more.
All imaging was conducted on an EVOS FL Cell Imaging System (Thermo Fisher Scientific, Waltham, MA). […]

[6] = MPAT hiPSC-CMs, 10 μM PE, 48 hours, mean ± SEM

With `Cc1sc2c(c1C)C(c1ccc(Cl)cc1)=N[C@@H](CC(=O)OC(C)(C)C)c1nnc(C)n1-2` [JQ-1] the “effect on cell area” value (hiPSC-CMs [1]; GLUC hiPSC-CMs, 10 μM PE and 1 μM JQ-1, 48 hours) was “profoundly reduced cell area; also recorded: reduced cell area significantly beyond baseline”, the “reduction of cell area relative to PE-treated cells” value (hiPSC-CMs [1]; MM hiPSC-CMs, 10 μM PE and 1 μM JQ-1, 48 hours) was 17% and the “reduction of cell area relative to PE-treated cells” value (hiPSC-CMs [1]; MPAT hiPSC-CMs, 10 μM PE and 1 μM JQ-1, 48 hours) was 31%. The “decrease in cell area” value ([2]; 10 μM PE and 1 μM JQ-1, 72 hours) was 11%.
In the case of `CNC[C@H](O)c1cccc(O)c1` [PE, phenylephrine], the Max. tens. [3, 6] is reported as 44.04 ± 5.05 mN/mm^2, the Rest. tens. [3, 6] is reported as 6.15 ± 0.90 mN/mm^2 and the kACT [3, 6] is reported as 1.03 ± 0.08 s⁻¹. The “kREL, FAST” value [3, 6] was 8.64 ± 0.77* s^−1, the “kREL, SLOW” value [3, 6] was 0.58 ± 0.12 s⁻¹ and the kTR [3, 6] was 0.80 ± 0.06 s⁻¹. The tLIN [3, 6] was 113.6 ± 6.2**** mSec, the “shortening of linear phase of relaxation” value ([3]; hiPSC-CMs, PE vs vehicle (Table 5)) was “more than 80 msec” and the “effect on myofibril calcium sensitivity” value [4] was “increased myofibril calcium sensitivity”. For the same compound, the “effect on the kinetics of myofibril activation or relaxation” value [4] was “no effect”, the Max. tens. (myofibrils from AMVCMs; 10 μM PE, 72 hours, mean ± SEM) was 68.55 ± 6.39 mN/mm^2 and the Rest. tens. (myofibrils from AMVCMs; 10 μM PE, 72 hours, mean ± SEM) was 6.94 ± 1.07 mN/mm^2. The kACT (myofibrils from AMVCMs; 10 μM PE, 72 hours, mean ± SEM) was 4.45 ± 0.33 s⁻¹, the “kREL, FAST” value (myofibrils from AMVCMs; 10 μM PE, 72 hours, mean ± SEM) was 36.61 ± 4.59 s⁻¹ and the “kREL, SLOW” value (myofibrils from AMVCMs; 10 μM PE, 72 hours, mean ± SEM) was 1.83 ± 0.32 s⁻¹. The kTR (myofibrils from AMVCMs; 10 μM PE, 72 hours, mean ± SEM) was 3.12 ± 0.30 s⁻¹, the tLIN (myofibrils from AMVCMs; 10 μM PE, 72 hours, mean ± SEM) was 45.83 ± 2.58* mSec and the “shortening of linear phase of relaxation” value (myofibrils from AMVCMs; PE vs PBS (Table 6)) was roughly 10 ms. For the same compound, the “increase in cell area” value (hiPSC-CMs [1]; MM hiPSC-CMs, 10 μM PE, 48 hours) was 29%, the “increase in cell area” value (hiPSC-CMs [1]; MPAT hiPSC-CMs, 10 μM PE, 48 hours) was 19% and the “effect on cell area” value (hiPSC-CMs [1]; hiPSC-CMs cultured in glucose-containing medium (GLUC), 10 μM PE, 48 hours) was “no effect; also recorded: no hypertrophic response”. For the same compound, the “increase in cell area” value ([2]; 10 μM PE, 72 hours) was 16%, the “increase in cell area” value (adult cardiomyocytes) was 10-30% and the “increase in cell area” value (neonatal cardiomyocytes) was 50-100%. The “cells staining positive for BNP expression” value (hiPSC-CMs [5]) was “not increased”.
